Entries after “also recorded” stand apart in the source; their conditions may differ.
What was measured:
[1] = tested on: EPC (cells co-expressing CD34 and Sca-1); test: EPC mobilization (CD34+/Sca-1+ cells in peripheral blood) in mice exposed to HBO2; assay type: in vivo, mouse; conditions: wild-type mice, 40 mg/kg i.p. 2 hours prior to pressurization
Experimental: In the initial studies searching for the mechanisms for EPC mobilization with HBO2 EPC (assessed as cells that co-expressed CD34 and stem cell antigen-1 (Sca-1)) were also evaluated in peripheral blood of mice. […] In preliminary studies, mice were exposed to HBO2 for 90 minutes at up to 2.8 ATA and also to a pressure control, 2.8 ATA pressure using a gas containing 7.5% O2 (so that O2 partial pressure was the same as ambient air, 0.21 ATA O2). In select studies, mice were pre-treated with intraperitoneal L-nitroarginine methyl ester (L-NAME, to inhibit nitric oxide synthase [NOS]), 40 mg/kg i.p. administered 2 hours prior to pressurization). In anesthetized mice, blood was obtained by aortic puncture and bone marrow was harvested by clipping the ends off a tibia and flushing the marrow cavity with 1 ml PBS. Exposure to 2.8 ATA O2 (but not 100% O2 at ambient pressure or 2.8 ATA pressure at a total O2 partial pressure of only 0.21 ATA O2) increased EPC mobilization immediately after treatment, as well as 16 hrs post-treatment, and with repeated treatments (FIG. 4).
There is precedence for rapid mobilization of stem cells from bone marrow, but most emigration is believed to occur after a period of cell proliferation within the marrow niche.

stem cell factor (SCF) = test: Plasma stem cell factor by Quantikine M immunoassay in mice (Table I); assay type: in vivo, mouse; conditions: for Plasma SCF if mice pre-treated with L-NAME: L-NAME pre-treatment
[2] = tested on: NO synthesis in bone marrow (NOS); test: Real-time bone marrow NO measurement with NO microelectrode during HBO; assay type: in vivo, mouse
Experimental: (§1) For HBO treatment, mice were placed in an animal hyperbaric chamber (Reneau Corp.) and subjected to 100% oxygen at 2.4 atmospheres absolute (ATA) for 90 min (Davis Wound Healing Protocol). To measure continuous, real-time BM NO levels, NO microelectrodes was inserted into the femoral marrow cavity as previously described. An osteotomy was created on the patellar surface of the murine femur using a 25 G beveled needle, allowing the electrode to be lowered into the marrow space when the animal was placed in the hyperbaric chamber. In some mice, pretreatment with L-NAME (40 mg/kg i.p.) (Sigma-Aldrich) was given 2 h prior to exposure to HBO.
In early studies, it was hypothesized that HBO2 augments stem cell mobilization because it stimulates •NO synthesis in the bone marrow, as •NO is known to play a central role with stem cell release from bone marrow. […] Mice were placed in a hyperbaric chamber where, while breathing air, baseline measurements were obtained. The chamber was then flushed with 100% O2 and compressed to 2.4 ATA O2.
Physiologically, the NO-mediated EPC release into circulation occurs in response to tissue-level hypoxia, although this compensatory response is inadequate in the setting of diabetes and results in severe defects in neovascularization and wound healing. […] Therefore, it was sought to utilize HBO as a tool to augment EPC release into circulation and further study both EPC mobilization and wound-homing mechanisms in the presence of diabetes. The goal was to determine whether hyperoxia stimulates NO production in the BM of diabetic mice via a NOS-mediated pathway and whether this pathway is impaired in diabetes. To test this hypothesis, Nafion polymer—coated NO microsensors were inserted into the femur BM space of both STZ induced diabetic and nondiabetic mice to measure real-time NO levels within the BM prior to and is during HBO-induced hyperoxia. […] It was speculated, that this was likely due to a compensatory effect from other NOS isoforms, and therefore the level of both iNOS and nNOS was examined in diabetic mice. […] However, no observation was made of any changes in the phosphorylation of these NOS isoforms.

ischemic hindlimb wounds = test: Hindlimb ischemia (femoral ligation/excision): perfusion, wound BMD EPC and wound healing with daily HBO2; assay type: in vivo, mouse; conditions: 40 mg/kg i.p.
Experimental: In addition, it was observed that HBO2 daily treatments (2.4ATA 100% O2 for 90 min) improved hindlimb perfusion by Laser Doppler Imaging (LDF) after femoral ligation/excision (FIG. 6) and increased the bone marrow-derived (BMD) EPC within the incisional wounds, 3 d post-wounding (with 4 HBO2 treatments) (FIG. 7). By day 8 after wounding, ischemic excisional punch biopsy wounds treated daily with HBO2 healed faster (FIG. 8). […] Each day animals were harvested, and blood (retro-orbital bleeding) and bone marrow (flushing of tibias and femurs) collected (3 mice for each time point had bone marrow collected and 5 mice for each time point had blood collected). VEGFR-2 (kdr) mRNA was semi-quantitated by RT PCR.

[3] = tested on: circulating EPCs (CXCR4+/VEGFR2+, Tie2+/VEGFR2+); test: Circulating EPCs by flow cytometry in STZ-diabetic mice; assay type: in vivo, mouse
Experimental: (§2) Tie2-GFP, wild-type or chimeric FVB mice at 6-12 wk of age were treated with STZ (Sigma-Aldrich) to induce diabetes. Mice were rendered diabetic by i.p. administration of 60 mg/kg STZ in 50 mM sodium citrate, pH 4.5, daily for 5 d. Control mice were treated with daily injections of citrate buffer. Serum glucose was measured from the mouse tail vein using a glucometer. Once serum glucose reached 250 mg/dL, mice were followed with daily measurements for 1 wk prior to use in experiments. Serum glucose levels in STZ mice averaged 461 mg/dL with a range of 372-520 mg/dL, while control mice serum glucose mean level was 120 mg/dL with a range of 94-135 mg/dL. Wounds were induced on the ventral surface of the mouse thigh using a 4 mm punch biopsy. Full-thickness skin was removed, exposing the underlying muscle.
as §1
Mobilization of EPCs into circulation was studied using flow cytometry as previously described. Cells isolated from mice were incubated with various Abs (BD Biosciences). Isotype matched mouse immunoglobulins served as controls. One million viable cells were analyzed per sample using an LSR2 multicolor flow cytometer (BD Biosciences). Data was analyzed using FlowJo software (Treestar, Inc.).
Physiologically, increased levels of BM NO result in activation of MMP-9 and conversion of kit ligand to its soluble form, ultimately generating EPC release into circulation. To study the effects of the hyperoxia-induced rise in NO levels in the marrow cavity on mobilization of EPCs into circulation, peripheral blood from diabetic mice was analyzed for EPCs using flow cytometry. A determination of whether hyperoxia, induced by HBO, increases the number of circulating EPCs in the peripheral blood of diabetic mice was made. Specifically, peripheral blood of diabetic mice was examined 18 h after a single HBO treatment. After excluding dead DAPI^+labeled cells, candidate lymphocytes, identified by their typical appearance on forward and side scatter, were gated and CD45^+/CD3^+cell populations were excluded. […] Therefore, several marker combinations were used to quantitate circulating EPCs. […]

[4] = tested on: wound EPCs (GFP+/VEGFR2+); test: EPC homing to wounds in diabetic GFP bone marrow chimeric mice; assay type: in vivo, mouse
Experimental: All procedures were done with approval from the University of Pennsylvania Institutional Animal Care and Use Committee (IACUC). 6-12 wk-old FVB wild-type mice (FVB/NJ), GFP (FVB/Tg) and Tie2-GFP (Tg(TIE2GFP)87 Sato/J) were purchased from The Jackson Laboratory. For all surgical procedures, mice were anesthetized with an i.p. injection of 80 mg/kg of ketamine (Phoenix Scientific, Inc.) and 20 mg/kg xylazine (Vedco Inc.). For BM transplantation experiments, 1×10^7 BM cells from GFP mice were transplanted to γ-irradiated (900 Rad) FVB wild type mouse via tail vein. […] For local wound SDF-1α injection, SDF-1α protein (R&D Systems) was reconstituted in PBS and injected into the wound base (25 μg/Kg).
For immunostaining, paraffin embedded serial sections (5 μm) were first underwent standard deparaffinizing and rehydration procedures and then probed with various Abs. To assess wound SDF-1α^+ cells, sections were double-stained with HTC-conjugated anti-SDF-1α and PE-conjugated different tissue-specific Abs (eBiosciences). To detect blood vessels in wound, sections were stained with HTC-conjugated anti-VEGFR2Ab. […] Tissue sections were analyzed using fluorescence microscopy and ImageJ (NIH) software to quantitate fluorescent intensity. In trichrome stained slides, blue stain (collagen content) was also quantitatively analyzed by ImageJ. […]

[5] = tested on: diabetic cutaneous wounds; test: Peripheral wound healing (wound closure) in diabetic mice; assay type: in vivo, mouse; conditions: diabetic mice, 6 d post-wounding, FIG. 17A
Experimental: as §2
Initial wound surface area was recorded and wounds were then followed serially with daily digital photographs using an Olympus digital camera. Photographs contained an internal scale to allow for standard calibration of measurements. Wound area was quantified using ImageJ software. Wound area was expressed as the percentage of original wound size. Wounds were followed for 6 d and mice were sacrificed at the conclusion of the experiment.
EPCs play a key role in vasculogenesis and cutaneous tissue repair. It was hypothesized that increased numbers of EPCs in circulation, along with enhanced EPC homing to wounds, results in improved wound healing in diabetes. Diabetic wound closure rates were studied, in response to treatment with HBO and SDF-1α alone and in combination. Wounded diabetic mice underwent daily wound injections with SDF-1α, PBS, HBO, or SDF-1α+HBO treatments. […] This healing response was greater than the response to either treatment modality alone. In addition, histochemical analysis was conducted to examine blood vessel density (VEGFR2 staining), cellularity and stromagenesis (H&E staining), and extracellular constitution (trichrome staining) in wound tissues. […]

wound granulation tissue = test: Histochemistry of diabetic wound tissue (VEGFR2 vessel density, H&E, trichrome collagen); assay type: in vivo, mouse; conditions: diabetic wounds at d 6, FIG. 17D-E
Text: (§3) For immunostaining, paraffin embedded serial sections (5 μm) were first underwent standard deparaffinizing and rehydration procedures and then probed with various Abs. To assess wound SDF-1α^+ cells, sections were double-stained with HTC-conjugated anti-SDF-1α and PE-conjugated different tissue-specific Abs (eBiosciences). To detect blood vessels in wound, sections were stained with HTC-conjugated anti-VEGFR2Ab. For examination of wound EPC recruitment in BM transplantation experiment, sections were double-stained with FITC-GFP and PE-VEGFR2 (BD Biosciences). Nuclei were counterstained with Hoescht dye. Masson's trichrome staining and H&E staining were performed using standard method and all reagents were from Sigma-Aldrich. Tissue sections were analyzed using fluorescence microscopy and ImageJ (NIH) software to quantitate fluorescent intensity. In trichrome stained slides, blue stain (collagen content) was also quantitatively analyzed by ImageJ.
EPCs play a key role in vasculogenesis and cutaneous tissue repair. It was hypothesized that increased numbers of EPCs in circulation, along with enhanced EPC homing to wounds, results in improved wound healing in diabetes. Diabetic wound closure rates were studied, in response to treatment with HBO and SDF-1α alone and in combination. Wounded diabetic mice underwent daily wound injections with SDF-1α, PBS, HBO, or SDF-1α+HBO treatments. […]

[6] = Mouse serum SDF-1α ELISA after wound injection; assay type: in vivo; conditions: 2 h following wound injection of SDF-1α
Experimental: Mouse serum SDF-1α concentration was measured by Quantikine® mouse SDF-1α ELISA kit (R&D Systems) based on manufacturer's protocol.

SDF-1α in wound tissue = test: Wound SDF-1α level (immunostaining); assay type: in vivo, mouse; conditions: after SDF-1α injection, compared to nondiabetic wound
Text: as §3

[7] = Induction of diabetes with STZ, serum glucose by glucometer; assay type: in vivo, mouse; conditions: 60 mg/kg i.p. daily for 5 d
Experimental: as §2

## COC(=O)[C@@H](N)CCCNC(=N)N[N+](=O)[O-] [L-NAME, L-nitroarginine methyl ester]
[1]
  EPC mobilization with L-NAME injected before HBO2: did not occur
Stem cell factor (SCF); air-breathing (control) mice
  Plasma SCF if mice pre-treated with L-NAME: 39.4 ± 1.9 pg/mL
Stem cell factor (SCF); then 2.8 ATA O2, 16 hours after
  Plasma SCF if mice pre-treated with L-NAME: 42.4 ± 2.5 pg/mL
Stem cell factor (SCF); mouse, in vivo
  HBO2-induced SCF elevation with L-NAME: blocked
[2]; 40 mg/kg ip before 2.4 ATA O2
  NO signal in bone marrow with L-NAME pre-treatment: no •NO signal was detected
[2]; diabetic and nondiabetic mice
  hyperoxia-induced increases in BM NO production after pretreatment: completely inhibited; also recorded: Complete inhibition
Ischemic hindlimb wounds
  HBO2 wound healing improvements with L-NAME prior to HBO2: not observed
[3]; mouse, in vivo
  EPC mobilization following HBO in L-NAME pre-treated animals: No increase; also recorded: inhibited

## SDF-1α
[3]; wounded diabetic mice, 48 h post-wounding, FIG. 15A
  circulating EPCs versus other groups / PBS: statistically significant increase
[3]; wounded diabetic mice, daily treatment, 48 h post-wounding
  increase in circulating EPCs (CXCR4+/VEGFR2+): 2 fold
[4]; diabetic chimeric mice, 3 d of treatment, vs untreated diabetic mice
  increase in wound-level EPCs (GFP+/VEGFR2+): 3 fold
[4]; diabetic mice
  EPCs recruited/homing to wound tissue: significant increase
[5]
  wound healing rates compared with PBS treated controls: statistically improved
Wound granulation tissue
  collagen deposit and vessel density: significant increase
[6]
  systemic (peripheral blood) SDF-1α concentration: increased
SDF-1α in wound tissue
  local SDF-1α level in diabetic wound: dramatically increased

## CN(N=O)C(=O)N[C@@H](C=O)[C@@H](O)[C@H](O)[C@H](O)CO [STZ, streptozocin]
[7]
  Serum glucose, average: 461 mg/dL
  Serum glucose, range: 372 to 520 mg/dL

Source: patent US8440617B2, “Hyperbaric treatment in wound healing” (The Trustees of the University of Pennsylvania, priority 2007, dated 2013)
